These results are taken from patent US20090233910A1, “Npy antagonists, preparation and uses” (CEREP, priority 2005, published 2009).

The target in test [1] is T1, NPY Y1 receptor (Homo sapiens, UniProt P25929).
T1 construct: host or cells: SK-N-MC cells (whole-cell suspension)
T1 sequence (P25929 1-384): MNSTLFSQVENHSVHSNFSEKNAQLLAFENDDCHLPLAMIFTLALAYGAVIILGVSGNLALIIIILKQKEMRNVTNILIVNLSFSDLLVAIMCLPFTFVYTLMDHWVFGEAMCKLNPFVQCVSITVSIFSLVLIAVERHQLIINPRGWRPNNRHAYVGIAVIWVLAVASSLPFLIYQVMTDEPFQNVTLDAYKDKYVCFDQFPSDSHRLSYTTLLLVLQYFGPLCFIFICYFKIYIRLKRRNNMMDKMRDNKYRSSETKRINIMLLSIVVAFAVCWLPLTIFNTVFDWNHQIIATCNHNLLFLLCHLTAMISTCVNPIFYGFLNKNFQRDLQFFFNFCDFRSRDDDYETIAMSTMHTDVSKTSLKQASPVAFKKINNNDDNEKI
In words: Binding test to the NPY Y1 receptor ([125I]-PYY, SK-N-MC cell suspension). As to conditions: SK-N-MC cells, 25 pM [125I]-PYY. On the procedure:
The SK-N-MC cells (ATCC HBT10) are cultured at 37° C. in MEM medium (minimum essential medium) free of phenol red (Invitrogen ref. 04194565M) containing 10% foetal calf serum (Invitrogen ref. 10270-106), 1% non-essential aminoacids (Invitrogen ref. 11140-035), 1% sodium pyruvate (Invitrogen ref. 11360-039), 1% glutamine (Invitrogen ref. 25030-032), 100 IU/ml of penicillin and 100 μg/ml of streptomycin (Invitrogen ref. 15140-122) in a humid atmosphere containing 5% CO2.
After aspirating the culture medium, the cells are washed with a phosphate buffer pH 7.4 (Invitrogen ref. 14190-094), then lifted with a Versene solution (Invitrogen, ref 15040-033). The cells are centrifuged at 500×g for 10 minutes at 4° C. then resuspended in a freeze buffer pH 7.4 containing 50 mM HEPES (N-2-hydroxyethylpiperazine-N′-2-ethanesulfonic acid), 145 mM sodium chloride, 2.6 mM calcium chloride, 1 mM magnesium chloride, 10 mM glucose, and 1 mg/ml bovine albumin. The cell suspension is aliquoted into twenty million cells per milliliter of buffer and stored at −70° C.
The cell suspension is incubated 2 hours at 37° C. in an incubation buffer pH 7.4 containing 50 mM HEPES, 2.5 mM calcium chloride, 1 mM magnesium chloride, 0.025% sodium azide, 1 mg/ml bovine albumin and 25 pM [^125I]-PYY (Perkin Elmer, NEX341). The reaction is halted by filtering through a GF/B filter pre-treated with 0.3% PEI, and washed three times with 1 ml of 50 mM TRIS buffer [tris(hydroxymethyl)aminomethane]/HCl, pH 7.4. The radioactivity deposited on the filter is measured by liquid scintillation count (TopCount, Packard). Non-specific binding is determined in the presence of 1 μM NPY (Bachem, H3322). Results are expressed as IC50 values in nM calculated by non-linear regression with 4 parameters.

The target of test [2] is T1, NPY Y1 receptor. In words: cAMP measurement test in SK-N-MC cells (shift of NPY dose-effect curves, forskoline-stimulated). In kind it is cell-based. As to conditions: Schild analysis vs NPY, read-out: pA2 Y1 (converted). On the procedure:
The SK-N-MC cells are cultured in 96-well plates. After aspirating the culture medium, the cells are washed with a phosphate buffer pH 7.4 (Invitrogen ref. 14190-094), then lifted with a Versene solution (Invitrogen, ref 15040-033). The cells are centrifuged at 500×g for 10 minutes at 4° C. They are resuspended in a stimulation buffer containing isobutyl-methyl-xanthine in sufficient concentration to inhibit the phosphodiesterases (Flashplate kit, Perkin Elmer). The tested compounds are added 10 minutes before depositing the NPY (Bachem, H3322) in variable concentration, then the 300 nM forskoline (Sigma, F6886). The cells are in cubated 1 hour at ambient temperature to allow cAMP production whose levels are measured using the Flashplate method after 2 hours incubation with the cAMP tracer [^125I]. The results are expressed in pA2 form observing the displacement of NPY dose-effect curves in the absence and presence of increasing concentrations of test compound [Schild, 1949, pAx and competitive drug antagonism, Br. J. Pharmacol., 4, 277-280].

In the next test the target is T2, human Y5 receptor (Homo sapiens, UniProt Q15761).
T2 construct: expressed in transfected cells; host or cells: CHO cells (CHO-Y5H), membrane preparation
T2 sequence (Q15761 1-445): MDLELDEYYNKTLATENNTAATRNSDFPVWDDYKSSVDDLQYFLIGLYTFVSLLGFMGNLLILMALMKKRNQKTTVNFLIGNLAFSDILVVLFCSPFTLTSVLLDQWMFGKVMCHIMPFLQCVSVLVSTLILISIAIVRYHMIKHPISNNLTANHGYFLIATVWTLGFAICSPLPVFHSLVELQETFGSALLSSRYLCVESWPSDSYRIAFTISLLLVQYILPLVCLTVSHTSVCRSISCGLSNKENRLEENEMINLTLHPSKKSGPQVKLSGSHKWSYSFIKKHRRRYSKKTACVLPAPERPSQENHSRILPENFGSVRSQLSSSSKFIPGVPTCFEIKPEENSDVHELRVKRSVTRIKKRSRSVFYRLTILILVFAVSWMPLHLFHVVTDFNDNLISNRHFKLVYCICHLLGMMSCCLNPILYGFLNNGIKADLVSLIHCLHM
The test is described as follows: Binding test to the NPY Y5 receptor ([125I]-human PYY, CHO cell membranes). On the procedure: The CHO cells expressing either the Y4 or the Y5 human recombinant receptor are cultured in DMEM medium to which is added 5% dialysed foetal calf serum, 10 mM Hepes buffer and 0.8 g/l sodium bicarbonate. They are lifted from their support using a 36 mM citrate buffer without trypsin and without EDTA, and washed in PBS buffer free of Ca^2+ and of Mg^2+. The cell residues are stored at (−80° C.) until fractioning.
The cell residue is redissolved in 10 mM TRIS buffer, 3 mM MgCl2, pH 7.4 and separated with polytron. After centrifuging at 20 000×g the residue is redissolved in this same buffer, potter separated and aliquoted for storage in liquid nitrogen to around 5 mg/ml proteins.
Approximately 80 μg of membranes of CHO cells having stable expression of the human Y5 receptor are incubated for 60 min at 30° C. in 200 μl Krebs-Ringer buffer (pH 7.4) containing 20 mM Hepes, 1% bovine serum albumin, 0.25 mg/ml bacitracin and 0.1 nM of [^125I]-human PYY (Perkin Elmer, NEX 341). The reaction is halted by filtering through Wathman GF/C filters and washing with 3 times 4 ml of buffer at 4° C. The radioactivity deposited on the filter is counted with a gamma counter (Whizard 1470, Wallac, Perkin Elmer). Non-specific binding is determined in the presence of 0.3 μM porcine NPY (Neosystem, SC116). […]

As usually defined, the IC50 is the midpoint of a concentration-inhibition curve. A high value points to weaker potency.

Turning to `CCCCN1CCC(Oc2ccc(C(=O)Nc3ccc(Oc4ccc(NC(=O)NC(CC)CC)cc4OC)cc3)cc2)CC1` [Example 103, 4-(1-Butyl-piperidin-4-yloxy)-N-(4-{4-[3-(1-ethyl-propyl)-ureido]-2-methoxy-phenoxy}-phenyl)-benzamide], the IC50 was 1.8 nM at NPY Y1 receptor [1] and greater than 10000 nM at human Y5 receptor (CHO membranes, human Y5, [125I]-human PYY). For the same molecule, at NPY Y1 receptor [2], the Kb was 6.31 nM. Moreover, on human Y5 receptor (inhibition of specific binding at 10 μM of compound, read-out: % Inh at 10 μM Y5), the inhibition at 10 µM worked out at 0%.
